Experimental data from the supplement of paper PMC10307832.

Key:
Assay in all cases: relative viability (nuclei count vs DMSO), 5 days (fraction); higher = more cells survive
[1] = compound: CC(O)(CS(=O)(=O)c1ccc(F)cc1)C(=O)Nc1ccc(C#N)c(C(F)(F)F)c1 [Bicalutamide] + O=C(CCCCCCC(=O)Nc1ccccc1)NO [Vorinostat] (partner 1 µM)
Method in brief: (§1)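 The day after seeding in 1536-well plates, lung cancer cell lines were treated by pin tool with a single drug, or with a fixed anchor-drug dose together with five library-drug doses (not always all listed) in √10 steps. After 5 days, a combined fix-and-stain solution (final 0.05% Triton X-100, 1% formaldehyde, 1 ug/ml Hoechst) was added. Nuclei counted on 4× images gave relative viability as treated counts over vehicle counts, reported as the median of duplicate plates.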

[2] = compound: CC(O)(CS(=O)(=O)c1ccc(F)cc1)C(=O)Nc1ccc(C#N)c(C(F)(F)F)c1 [Bicalutamide] + Nc1ncn([C@H]2C[C@H](O)[C@@H](CO)O2)c(=O)n1 [Decitabine] (partner 2 µM)
Method in brief: as §1

[3] = compound: C(C(=O)C(=O)O)Br [Bromopyruvate] + O=C(CCCCCCC(=O)Nc1ccccc1)NO [Vorinostat] (partner 1 µM)
Method in brief: as §1

Bicalutamide + Dasatinib = compound: CC(O)(CS(=O)(=O)c1ccc(F)cc1)C(=O)Nc1ccc(C#N)c(C(F)(F)F)c1 [Bicalutamide] + Cc1nc(Nc2ncc(C(=O)Nc3c(C)cccc3Cl)s2)cc(N2CCN(CCO)CC2)n1 [Dasatinib] (partner 0.075 µM)
Method in brief: as §1

Cell Line	relative viability ([1]; first compound 0.08 µM)	relative viability ([1]; first compound 0.253 µM)	relative viability ([1]; first compound 0.8 µM)	relative viability ([1]; first compound 2.53 µM)	relative viability ([2]; first compound 0.08 µM)	relative viability ([2]; first compound 0.253 µM)	relative viability ([2]; first compound 0.8 µM)	relative viability ([2]; first compound 2.53 µM)	relative viability ([3]; first compound 1 µM)	relative viability ([3]; first compound 100 µM)	relative viability (Bicalutamide + Dasatinib; first compound 0.08 µM)	relative viability (Bicalutamide + Dasatinib; first compound 0.253 µM)	relative viability (Bicalutamide + Dasatinib; first compound 0.8 µM)	relative viability (Bicalutamide + Dasatinib; first compound 2.53 µM)	relative viability ([3]; first compound 3.162 µM)	relative viability ([3]; first compound 10 µM)	relative viability ([3]; first compound 31.62 µM)
ABC-1	1.06	0.805	1.5	0.947	1.25	0.929	1.23	0.847	1.27	0.612	0.658	0.476	0.725	0.475			
NCI-H661	0.768	0.805	0.771	0.806	0.546	0.51	0.557	0.549	0.767	0.712	0.95	0.844	1.03	0.722	0.798	0.779	0.712
NCI-H1650	0.685	0.586	0.581	0.611	0.452	0.369	0.45	0.436	0.549	0.304	0.34	0.245	0.381	0.301	0.388	0.505	0.54
NCI-H2087	0.668	0.643	0.812	0.856	0.295	0.237	0.302	0.286	0.814	0.375	0.851	0.87	1.05	0.816	0.551	0.751	0.528
NCI-H1793	0.869		0.996	0.566	0.524		0.574	0.423	0.792	0.634	0.369	0.349	0.486	0.377	0.914	0.794	0.727
LC-2-ad	0.767	0.679	0.67	0.556	0.808	0.831	0.857	0.909	0.706	0.575	0.693	0.514	0.701	0.514	0.631	0.72	0.645
COR-L 105	0.983	0.712	0.944	0.717	0.765	0.6	0.698	0.63	0.708	0.411	0.325	0.257	0.325	0.285	0.68	0.645	0.665
NCI-H1355	0.679	0.596	0.691	0.609	0.367	0.348	0.395	0.376	0.668	0.606	0.753	0.639	0.797	0.729	0.641	0.646	0.607
H3255	0.808	0.755	0.969	0.69	0.601	0.571	0.668	0.525	0.941	0.85	0.491	0.39		0.359	0.781	0.771	0.763
NCI-H2009	0.732	0.719	0.898	0.71	0.356	0.37	0.405	0.38	0.72	0.266	0.337	0.321	0.278	0.222	0.682	0.622	0.546
NCI-H1734	0.85	0.701	1.05	0.673	0.542	0.453	0.515	0.558	0.762	0.724	0.454	0.4	0.561	0.367	0.86	0.858	0.736
HOP-62	0.783	0.606	0.689	0.52	0.25	0.2	0.241	0.221	0.716	0.428	0.663	0.646	0.815	0.516	0.579	0.569	0.534
LOU-NH91	0.985	0.723	0.971	0.893	0.769	0.817	0.83	0.836	1.07	1	0.635	0.43	0.605	0.568	0.961	0.912	1
ChaGo-K-1	0.763	0.691	0.887	0.772	0.524	0.46	0.561	0.551	0.818	0.67	0.613	0.557	0.561	0.542	0.755	0.879	0.703
NCI-H23	0.758	0.498	0.697	0.465	0.312	0.36	0.311	0.297	0.569	0.39	0.789	0.67	1.07	0.802	0.639	0.64	0.538
PC-3 [JPC-3]	0.809	0.887	1.14	0.808	0.791	0.88	0.797	0.873	1.1	0.764	1.04	0.946	1.05	0.947		0.536	
NCI-H1437	0.839	0.832	0.875	0.859	0.554	0.501	0.599	0.616	0.918	0.529	0.412	0.406	0.466	0.447	0.672	0.74	0.694
NCI-H520	0.831	0.728	0.881	0.596	0.576	0.52	0.646	0.51	0.543	0.469	0.192	0.195	0.185	0.137	0.745	0.706	0.731
NCI-H1666	0.921	1.05	1.14	0.981	0.724	0.706	0.767	0.723	1.01	0.858	0.915	0.789	0.767	0.731	0.978	1.08	0.931
